Results as given in ChEMBL document CHEMBL4483862, “Open-source discovery of chemical leads for next-generation chemoprotective antimalarials” (2018).

System: Plasmodium berghei
Assay: Luciferase/luciferin-expressing antifolate-resistant parasites were used to infect a culture of HepG2 cells that were pre-incubated with compounds. Infected hepatocytes emit light due to the luciferase reaction. Assay results are presented as the percent inhibition of light emission compared to control. […]
Type: functional
Settings: sporozoite; for IC90: read-out: LUCIFERASE INFECTION ASSAY - IC90
[1] = read-out: LUCIFERASE INFECTION ASSAY - IC50

Structure (SMILES)	IC90 [µM]	further results
CN1CCN(c2ccc(Cl)cc2NC(=O)Nc2cc(Cl)ccc2N2CCN(C)CC2)CC1	3.56	IC50 (HEPG2TOX_HILL_SLOPE 4.19, HEPG2TOX_R_SQUARED 0.986, PBLUC_HILL_SLOPE 15.5, PBLUC_R_SQUARED 0.444, read-out: LUCIFERASE INFECTION ASSAY - IC50): 3.09 µM
CC1CCc2c(sc3nc(Sc4nnnn4-c4ccccc4)nc(N)c23)C1 (centres undefined)	> 10	IC50 (PBLUC_HILL_SLOPE 2.12, PBLUC_R_SQUARED 0.375, read-out: LUCIFERASE INFECTION ASSAY - IC50): 3.69 µM
CC(=O)c1cccc(-c2ccc3ncc(-c4ccoc4)n3n2)c1	> 10	IC50 [1]: > 10 µM
N#C/C=C/C=C/c1nnn(-c2ccc(Cl)cc2)n1	12.6	IC50 (PBLUC_HILL_SLOPE 14.5, PBLUC_R_SQUARED 0.28, read-out: LUCIFERASE INFECTION ASSAY - IC50): 10.9 µM
CCN(CC)S(=O)(=O)c1cc(C)c(C)c(NC(=O)c2cc(C3CC3)nc3onc(C)c23)c1	9.64	IC50 (PBLUC_HILL_SLOPE 5.13, PBLUC_R_SQUARED 0.485, read-out: LUCIFERASE INFECTION ASSAY - IC50): 6.28 µM
COc1ccc(CN2CCN(c3ncc(C(=O)Nc4ccc5c(c4)OCO5)s3)C2=O)cc1	4.14	IC50 (HEPG2TOX_HILL_SLOPE 2.58, HEPG2TOX_R_SQUARED 0.97, PBLUC_HILL_SLOPE 17.4, PBLUC_R_SQUARED 0.0851, read-out: LUCIFERASE INFECTION ASSAY - IC50): 3.65 µM
CCOc1ccc(OCCC(=O)NCc2cccc(C(F)(F)F)c2)cc1	> 10	IC50 [1]: > 10 µM
COc1ccc(N2C(=O)C=CC2=O)cc1	> 16.2	IC50 (FFLUC_HILL_SLOPE 16.4, FFLUC_R_SQUARED 0.242, read-out: LUCIFERASE INFECTION ASSAY - IC50): > 16.2 µM
c1ccc2c(NCCNc3ncnc4ccccc34)cccc2c1	4.93	IC50 (HEPG2TOX_HILL_SLOPE 0.364, HEPG2TOX_R_SQUARED 0.666, PBLUC_HILL_SLOPE 0.695, PBLUC_R_SQUARED 0.76, read-out: LUCIFERASE INFECTION ASSAY - IC50): 0.209 µM
COc1ccc(NS(=O)(=O)c2cc(NC(=O)c3cccc(OC(F)F)c3)ccc2N2CCCCC2)cc1	> 10	IC50 (FFLUC_HILL_SLOPE 8.96, FFLUC_R_SQUARED 0.85, read-out: LUCIFERASE INFECTION ASSAY - IC50): > 10 µM
O=[N+]([O-])c1ccc(Nc2cccc(OC3CCCC3)c2)nc1	> 10	IC50 [1]: > 10 µM
CCOC(=O)c1sc(SCc2ccc(Cl)cc2)c(S(=O)(=O)C(C)C)c1-n1cccc1	> 6.82	IC50 (FFLUC_HILL_SLOPE 13.5, FFLUC_R_SQUARED 0.375, read-out: LUCIFERASE INFECTION ASSAY - IC50): > 6.82 µM
CC(OC(=O)c1cc([N+](=O)[O-])ccc1N(C)C)C(=O)Nc1ccc(Cl)cn1 (centres undefined)	1.83	IC50 (HEPG2TOX_HILL_SLOPE 1.79, HEPG2TOX_R_SQUARED 0.979, PBLUC_HILL_SLOPE 1.96, PBLUC_R_SQUARED 0.845, read-out: LUCIFERASE INFECTION ASSAY - IC50): 0.596 µM
O=C(c1cccs1)N1CCN(Cc2csc(C3CCCCC3)n2)CC1	> 10	IC50 (HEPG2TOX_HILL_SLOPE 7.59, HEPG2TOX_R_SQUARED 0.857, PBLUC_HILL_SLOPE 2.36, PBLUC_R_SQUARED 0.0477, read-out: LUCIFERASE INFECTION ASSAY - IC50): 5.47 µM
O=C(Nc1nc(-c2ccccn2)cs1)c1nn(-c2ccc(F)cc2)c2c1CCCC2	8.94	IC50 (PBLUC_HILL_SLOPE 4.43, PBLUC_R_SQUARED 0.595, read-out: LUCIFERASE INFECTION ASSAY - IC50): 5.45 µM
CC(OC(=O)[C@@H](Nc1ccc(C(F)(F)F)cc1Cl)C(C)C)C(=O)NC(=O)NC1CCCCC1 (some centres undefined)	6.57	IC50 (FFLUC_HILL_SLOPE 12, FFLUC_R_SQUARED 0.576, PBLUC_HILL_SLOPE 4.18, PBLUC_R_SQUARED 0.859, read-out: LUCIFERASE INFECTION ASSAY - IC50): 3.88 µM
CCOc1ccc(C(C)=O)cc1CSc1nc2ccccc2n1-c1cccc(C)c1	> 10	IC50 (PBLUC_HILL_SLOPE 3.51, PBLUC_R_SQUARED 0.141, read-out: LUCIFERASE INFECTION ASSAY - IC50): 7.59 µM
O=C(CCC(=O)N1CCC(C(O)(c2ccccc2)c2ccccc2)CC1)c1cccs1	3.65	IC50 (HEPG2TOX_HILL_SLOPE 0.15, HEPG2TOX_R_SQUARED 0.513, PBLUC_HILL_SLOPE 4.19, PBLUC_R_SQUARED 0.279, read-out: LUCIFERASE INFECTION ASSAY - IC50): 2.16 µM
COc1ccc(CC(N)c2csc(NC(=O)Nc3cccc(Cl)c3)n2)cc1 (centres undefined)	> 8.19	IC50 [1]: > 8.19 µM
Cc1noc2nc(C3CC3)cc(C(=O)Oc3ccc(N4CCCC4=O)cc3)c12	> 10	IC50 [1]: > 10 µM
CC(C)(C)c1nnc2sc(SCC(=O)NC(c3ccccc3)c3ccccc3)nn2c1=O	> 10	IC50 (FFLUC_HILL_SLOPE 10.4, FFLUC_R_SQUARED 0.278, PBLUC_HILL_SLOPE 1.88, PBLUC_R_SQUARED 0.683, read-out: LUCIFERASE INFECTION ASSAY - IC50): 4.26 µM

Structure (SMILES)	IC90 [µM]	further results
COc1ccc(-c2ccc3ncc(-c4ccoc4)n3n2)cc1OC	> 10	IC50 (PBLUC_HILL_SLOPE 16.2, PBLUC_R_SQUARED 0.0483, read-out: LUCIFERASE INFECTION ASSAY - IC50): > 10 µM
O=[N+]([O-])c1ccc(-c2noc(CCOc3ccc(F)cc3)n2)o1	9.89	IC50 (PBLUC_HILL_SLOPE 3.03, PBLUC_R_SQUARED 0.707, read-out: LUCIFERASE INFECTION ASSAY - IC50): 4.78 µM
Cc1ccc(-c2csc(NC(=O)CSc3nc4ccccc4c(=O)n3CCCN(C)C)n2)cc1	> 10	IC50 [1]: > 10 µM
CCOC(=O)c1[nH]c(C)c(C(=O)OCC(=O)Nc2ccc(Cl)cn2)c1C	2.91	IC50 (HEPG2TOX_HILL_SLOPE 0.952, HEPG2TOX_R_SQUARED 0.987, PBLUC_HILL_SLOPE 2.41, PBLUC_R_SQUARED 0.555, read-out: LUCIFERASE INFECTION ASSAY - IC50): 1.17 µM
Cc1cc(C(C)(C)C)cc(C)c1CCNC(=O)C1CCN(c2cnccn2)CC1	> 10	IC50 (HEPG2TOX_HILL_SLOPE 9.49, HEPG2TOX_R_SQUARED 0.929, PBLUC_HILL_SLOPE 9.04, PBLUC_R_SQUARED 0.464, read-out: LUCIFERASE INFECTION ASSAY - IC50): 8.99 µM
O=C(CN1C(=O)C(=O)N(CCc2cccs2)C1=O)NC(=O)Nc1ccccc1F	> 10	IC50 (PBLUC_HILL_SLOPE 3, PBLUC_R_SQUARED 0.385, read-out: LUCIFERASE INFECTION ASSAY - IC50): > 10 µM
CCN(CC)C(=S)SCC(=O)c1cc(C)n(-c2ccccc2)c1C	> 10	IC50 [1]: 4.85 µM
COc1cc(-c2cnc3cnc(-c4ccccc4Cl)cn23)cc(OC)c1OC	> 8.34	IC50 (HEPG2TOX_HILL_SLOPE 7.56, HEPG2TOX_R_SQUARED 0.703, PBLUC_HILL_SLOPE 2.2, PBLUC_R_SQUARED 0.686, read-out: LUCIFERASE INFECTION ASSAY - IC50): 6.11 µM
N#Cc1ccccc1NC(=O)CSc1nc2scc(-c3ccccc3Cl)c2c(=O)n1CCc1ccccc1	9.03	IC50 (FFLUC_HILL_SLOPE 9.25, FFLUC_R_SQUARED 0.857, PBLUC_HILL_SLOPE 5.48, PBLUC_R_SQUARED 0.817, read-out: LUCIFERASE INFECTION ASSAY - IC50): 6.05 µM
Cc1oc(-c2cccs2)nc1CC(=O)NNC(=O)CC12CC3CC(CC(C3)C1)C2	4.57	IC50 (PBLUC_HILL_SLOPE 9.4, PBLUC_R_SQUARED 0.433, read-out: LUCIFERASE INFECTION ASSAY - IC50): 3.62 µM
Cc1ccc(/N=C/c2cc3ccccc3nc2Sc2ccc(C)cc2)cc1	> 10	IC50 [1]: > 10 µM
CCN(CCC#N)c1ccc(/C=C2/C(=O)Nc3cc(Cl)ccc32)c(C)c1	> 10	IC50 [1]: > 10 µM
NC(Cc1ccc(F)cc1)c1csc(Nc2cc(NCc3ccco3)ncn2)n1 (centres undefined)	> 8.04	IC50 [1]: > 8.04 µM
CC(=O)Nc1ccc(-c2ccnc3n[nH]c(-c4ccsc4)c23)cc1	8.76	IC50 (HEPG2TOX_HILL_SLOPE 11.6, HEPG2TOX_R_SQUARED 0.801, PBLUC_HILL_SLOPE 2.91, PBLUC_R_SQUARED 0.114, read-out: LUCIFERASE INFECTION ASSAY - IC50): 4.12 µM
FC(F)(F)c1cccc(Nc2nccc3nc(-c4ccccc4Cl)[nH]c23)c1	> 10	IC50 (FFLUC_HILL_SLOPE 7.35, FFLUC_R_SQUARED 0.132, HEPG2TOX_HILL_SLOPE 0.352, HEPG2TOX_R_SQUARED 0.695, PBLUC_HILL_SLOPE 1.25, PBLUC_R_SQUARED 0.396, read-out: LUCIFERASE INFECTION ASSAY - IC50): 3.07 µM
Cc1nn2c(=O)cc(C(C)C)[nH]c2c1-c1ccccc1	10.5	IC50 (PBLUC_HILL_SLOPE 3.42, PBLUC_R_SQUARED 0.611, read-out: LUCIFERASE INFECTION ASSAY - IC50): 5.51 µM
Cc1ccc(S(=O)(=O)Nc2ccc(Nc3nccn4c(-c5ccccc5Oc5ccccc5)cnc34)cc2)cc1	5.41	IC50 (PBLUC_HILL_SLOPE 1.64, PBLUC_R_SQUARED 0.733, read-out: LUCIFERASE INFECTION ASSAY - IC50): 1.42 µM
C=CCNc1nnc(SCC(=O)Nc2c(Cl)cc(Cl)cc2C(=O)O)s1	> 10	IC50 [1]: > 10 µM
Cc1ccc(NC(=O)CSc2ccc(Nc3ccc(C)cc3)nn2)cc1	> 9.05	IC50 [1]: > 9.05 µM
Cc1nn(Cc2ccccc2Cl)c(C)c1C(=O)Nc1nc(-c2ccccn2)cs1	6.51	IC50 (PBLUC_HILL_SLOPE 5.44, PBLUC_R_SQUARED 0.0706, read-out: LUCIFERASE INFECTION ASSAY - IC50): 4.34 µM
CCc1ccc(-c2noc(CN3CCN(C(=O)c4ccccc4)CC3)n2)cc1	> 10	IC50 (HEPG2TOX_HILL_SLOPE 8.06, HEPG2TOX_R_SQUARED 0.791, read-out: LUCIFERASE INFECTION ASSAY - IC50): > 10 µM
